Measured values taken from patent publication US20110288052A1, “NOVEL COMPOUNDS, PHARMACEUTICAL COMPOSITIONS CONTAINING SAME, AND METHODS OF USE FOR SAME” (priority 2008, published 2011).
Converted amounts (≈) assume the structure as drawn. Where two headings read alike, the source gives them in different places.

Tests used:
HCT116 cells = experiment: XTT cytotoxicity assay, HCT116 (H); assay type: cell-based; conditions: Homo sapiens, HCT-116
Experimental: (§1) XTT Cytotoxicity Assay The XTT assay is a non-radioactive alternative for the [^51Cr] release cytotoxicity assay. XTT is a tetrazolium salt that is reduced to a formazan dye only by metabolically active, viable cells. The reduction of XTT is measured spectrophotometrically as OD490-OD650. To measure the cytotoxicity of specific compounds against cancer cells, 9×10^3 MCF-7 human breast cancer cells (shown in the tables as “(M)”), obtained from the American Type Culture Collection are plated per well in 96 well plates in DMEM medium with 10% fetal bovine serum, insulin, penicillin, and streptomycin. Following overnight culture at 37° C. and 5% CO2, the compounds to be tested, dissolved in DMSO, are added to the wells in 1 μl volume at the following concentrations: 80, 40, 20, 10, 5, 2.5, 1.25, and 0.625 μg/ml in triplicate. Additional concentrations are tested if required. 1 μl of DMSO is added to triplicate wells are the vehicle control. C75 is run at 40, 20, […], and 5 μg/ml in triplicate as positive controls. After 72 hours of incubation, cells are incubated for 4 hours with the XTT reagent as per manufacturer's instructions (Cell Proliferation Kit II (XTT) Roche). Plates are read at OD490 and OD650 on a Molecular Devices SpectraMax Plus Spectrophotometer. Three wells containing the XTT reagent without cells serve as the plate blank. XTT data are reported as OD490-OD650. Averages and standard error of the mean are computed using SOFTmax Pro software (Molecular Dynamics). The IC50 for the compounds is defined as the concentration of drug leading to a 50% reduction in OD490-OD650 compared to controls. The OD490-OD650 are computed by the SOFTmax PRO software (Molecular Devices) for each compound concentration. IC50 is calculated by linear regression, plotting the FAS activity as percent of control versus drug concentrations. Linear regression, best-fit line, r^2, and 95% confidence intervals are determined using Prism Version 3.0 (Graph Pad Software). The test was also run against OVCAR3 cells (“OV”), and HCT116 cells (“H”).

[1] = system: Enterococcus faecalis (ATCC # 29212); experiment: Broth microdilution antimicrobial assay, E. faecalis; assay type: cell-based
Experimental: Antimicrobial Properties A broth microdilution assay is used to assess the antimicrobial activity of the compounds. Compounds are tested at twofold serial dilutions, and the concentration that inhibits visible growth (OD600 at 10% of control) is defined as the MIC. Microorganisms tested include Staphylococcus aureus (ATCC # 29213), Enterococcus faecalis (ATCC # 29212), Pseudomonas aerpginosa (ATCC # 27853), and Escherichia coli (ATCC # 25922). The assay is performed in two growth media, Mueller Hinton Broth and Trypticase Soy Broth.
A blood (Tsoy/5% sheep blood) agar plate is inoculated from frozen stocks maintained in T soy broth containing 10% glycerol and incubated overnight at 37° C. Colonies are suspended in sterile broth so that the turbidity matches the turbidity of a 0.5 McFarland standard. The inoculum is diluted 1:10 in sterile broth (Mueller Hinton or Trypticase soy) and 195 μl is dispensed per well of a 96-well plate. The compounds to be tested, dissolved in DMSO, are added to the wells in 5 μl volume at the following concentrations: 25, 12.5, 6.25, 3.125, 1.56 and 0.78 μg/ml in duplicate. Additional concentrations are tested if required. 5 μl of DMSO added to duplicate wells are the vehicle control. Serial dilutions of positive control compounds, vancomycin (E. faecalis and S. aureus) and tobramycin (E. coli and P. aerpginosa), are included in each run.
After 24 hours of incubation at 37° C., plates are read at OD600 on a Molecular Devices SpectraMax Plus Spectrophotometer. Average OD600 values are computed using SOFTmax Pro Software (Molecular Devices) and MIC values are determined by linear regression analysis using Prism version 3.02 (Graph Pad Software, San Diego). The MIC is defined as the concentration of compound required to produce an OD600 reading equivalent to 10% of the vehicle control reading.

[2] = system: MCF-7 human breast cancer cells; experiment: XTT cytotoxicity assay, MCF-7 (M); assay type: cell-based; conditions: MCF7, MCF-7, 72 hours
Experimental: XTT Cytotoxicity Assay The XTT assay is a non-radioactive alternative for the [^51Cr] release cytotoxicity assay. XTT is a tetrazolium salt that is reduced to a formazan dye only by metabolically active, viable cells. The reduction of XTT is measured spectrophotometrically as OD490-OD650. To measure the cytotoxicity of specific compounds against cancer cells, 9×10^3 MCF-7 human breast cancer cells (shown in the tables as “(M)”), obtained from the American Type Culture Collection are plated per well in 96 well plates in DMEM medium with 10% fetal bovine serum, insulin, penicillin, and streptomycin. Following overnight culture at 37° C. and 5% CO2, the compounds to be tested, dissolved in DMSO, are added to the wells in 1 μl volume at the following concentrations: 80, 40, 20, 10, 5, 2.5, 1.25, and 0.625 μg/ml in triplicate. Additional concentrations are tested if required. 1 μl of DMSO is added to triplicate wells are the vehicle control. C75 is run at 40, 20, […], and 5 μg/ml in triplicate as positive controls. After 72 hours of incubation, cells are incubated for 4 hours with the XTT reagent as per manufacturer's instructions (Cell Proliferation Kit II (XTT) Roche). Plates are read at OD490 and OD650 on a Molecular Devices SpectraMax Plus Spectrophotometer. Three wells containing the XTT reagent without cells serve as the plate blank. XTT data are reported as OD490-OD650. Averages and standard error of the mean are computed using SOFTmax Pro software (Molecular Dynamics). The IC50 for the compounds is defined as the concentration of drug leading to a 50% reduction in OD490-OD650 compared to controls. The OD490-OD650 are computed by the SOFTmax PRO software (Molecular Devices) for each compound concentration. IC50 is calculated by linear regression, plotting the FAS activity as percent of control versus drug concentrations. Linear regression, best-fit line, r^2, and 95% confidence intervals are determined using Prism Version 3.0 (Graph Pad Software).

OVCAR3 cells = experiment: XTT cytotoxicity assay, OVCAR3 (OV); assay type: cell-based; conditions: Homo sapiens
Experimental: as §1

[3] = system: MCF-7 human breast cancer cells (fatty acid oxidation pathway activity); experiment: Fatty acid oxidation ([14C]palmitate to acid soluble products); assay type: cell-based
Experimental: Measurement of Fatty Acid Oxidation and Determination of SC150 of Compounds This assay measures the degradation of [^14C]palmitate into acid soluble products and is a measure of fatty acid oxidation pathway activity in vitro. It is utilized to measure fatty acid oxidation in vitro. MCF-7 human breast cancer cells cultured as above, are plated at 2.5×10^5 cells per well in 24-well plates. Following overnight incubation, the compounds to be tested, solubilized in DMSO, are added at […], 0.39, 1.56, 6.25, 25, and 100 μg/ml in triplicate, with lower concentrations tested if necessary. DMSO is added to triplicate wells for a vehicle control. C75 is run at 5 and 10 μg/ml in triplicate as positive controls. After 1 hour of incubation, medium is removed 100 uM of [^14C] palmitate in cyclodextran and 200 uM carnitine in serum free medium (250 μl volume) is added to each well. After 30 minutes of additional incubation, the reaction is stopped by addition of 2.6N HClO4. Contents of each well are transferred to 1.5 ml Eppendorf tubes and 4N KOH is added. The tubes are incubated for 30 minutes at 60° C. 1 M NaAcetate and 3N H2SO4 is added to each tube and vortexed. The tubes are centrifuged at 1000 rpm for 5 minutes at RT. 250 μl of the supernatant is transferred to a 2 ml eppendorf tube. To each tube is added: 938 μl of chloroform:methanol (1:1), 468 μl chloroform and 281 μl of deionized water. The tubes are vortexed and centrifuged at 1000 rpm for 5 minutes at RT. 750 μl of the upper phase is transferred into a scintillation vial 5 ml of scintillant is added and vials are counted for 1 minute for ^14C. The Beckman Scintillation counter calculates the average cpm values for triplicates. The SC150 for the compounds is defined as the concentration of drug leading to a 150% increase in production of acid soluble products of [^14C] palmitate as compared to untreated controls. This is determined by plotting the average cpm for each inhibitor concentration tested, performing linear regression and computing the best-fit line, r^2 values, and 95% confidence intervals. The average cpm values are computed by the Beckman scintillation counter (Model LS6500) for each compound concentration. Computation of linear regression, best-fit line, r^2, and 95% confidence intervals are calculated using Prism Version 3.0 (Graph Pad Software). If a compound fails to achieve this 150% threshold it is considered negative. The maximum value achieved is also reported (FAO Max).

[4] = Solubility problem noted during the assays; assay type: physicochemical; conditions: read-out: Sol Prob (solubility problem at concentration)
[5] = system: MCF-7 human breast cancer cells (fatty acid synthesis pathway activity); experiment: [14C]acetate incorporation into total lipids; assay type: cell-based; conditions: MCF7, [14C]acetate incorporation into lipids
Experimental: Measurement of [^14C]acetate Incorporation into Total Lipids and Determination of IC50 of Compounds. This assay measures the incorporation of [^14C]acetate into total lipids and is a measure of fatty acid synthesis pathway activity in vitro. It is utilized to measure inhibition of fatty acid synthesis in vitro.
MCF-7 human breast cancer cells cultured as above, are plated at 5×10^4 cells per well in 24-well plates. Following overnight incubation, the compounds to be tested, solubilized in DMSO, are added at 5, 10, and 20 μg/ml in triplicate, with lower concentrations tested if necessary. DMSO is added to triplicate wells for a vehicle control. C75 is run at 5 and 10 μg/ml in triplicate as positive controls. After 4 hours of incubation, 0.25 μCi of [^14C]acetate (10 μl volume) is added to each well.
After 2 hours of additional incubation, medium is aspirated from the wells and 800 μl of chloroform:methanol (2:1) and 700 μl of 4 mM MgCl2 is added to each well. Contents of each well are transferred to 1.5 Eppendorf tubes, and spun at full-speed for 2 minutes in a high-speed Eppendorf Microcentrifuge 5415D. After removal of the aqueous (upper) layer, an additional 700 μl of chloroform:methanol (2:1) and 500 μl of 4 mM MgCl2 are added to each tube and then centrifuged for 1 minutes as above. The aqueous layer is removed with a Pasteur pipette and discarded. An additional 400 μl of chloroform:methanol (2:1) and 200 μl of 4 mM MgCl2 are added to each tube, then centrifuged and aqueous layer is discarded. The lower (organic) phase is transferred into a scintillation vial and dried at 40° C. under N2 gas. Once dried, 3 ml of scintillant (APB #NBC5104) is added and vials are counted for ^14C. The Beckman Scintillation counter calculates the average cpm values for triplicates.
The IC50 for the compounds is defined as the concentration of drug leading to a 50% reduction in [^14C]acetate incorporation into lipids compared to controls. This is determined by plotting the average cpm for each inhibitor concentration tested, performing linear regression and computing the best-fit line, r^2 values, and 95% confidence intervals. The average cpm values are computed by the Beckman scintillation counter (Model LS6500) for each compound concentration. Computation of linear regression, best-fit line, r^2, and 95% confidence intervals are calculated using Prism Version 3.0 (Graph Pad Software).

| EF/MH (MIC) ([1]; Mueller Hinton Broth) | EF/Tsoy (MIC) ([1]; Trypticase Soy Broth) | solubility ([4]; noted under the 14C column, unit inferred) | IC50 [5] | solubility [4] | Structure (SMILES) | IC50 (HCT116 cells) | IC50 [2] | IC50 (OVCAR3 cells; OVCAR-3) | Emax at 6.25 µg/mL ([3]; Homo sapiens, MCF7, at 6.25 μg/ml, read-out: FAO Max) | FAO SC 150 ([3]; concentration leading to 150% of control acid soluble products, Neg = threshold not reached) | IC50 (OVCAR3 cells; OVCAR-3, unit given as ml) |
| --- | --- | --- | --- | --- | --- | --- | --- | --- | --- | --- | --- |
| Neg | Neg |  |  |  | CCCCCCCCC1(C)SC(=O)C=C1OCC(=O)Nc1ccc(C)cc1 (stereo not drawn) | 12.8 µg/mL (≈ 32.9 µM) | 6.8 µg/mL (≈ 17.5 µM) | 8.1 µg/mL (≈ 20.8 µM) |  |  |  |
|  |  | 80 µg/mL (≈ 185 µM) |  |  | CCCCCCCCC1(C)SC(=O)C=C1OCC(=O)Nc1ccc(C(=O)OC)cc1 (stereo not drawn) | 6.3 µg/mL (≈ 14.5 µM) | 6.5 µg/mL (≈ 15 µM) |  | 126% | Neg | 12.7 µg/mL (≈ 29.3 µM) |
|  |  |  | 12.3 µg/mL (≈ 29.4 µM) | 80 µg/mL (≈ 191 µM) | CCCCCCCCC1(C)SC(=O)C=C1OCC(=O)Nc1ccc(C(N)=O)cc1 (stereo not drawn) | 10.6 µg/mL (≈ 25.3 µM) | 10.2 µg/mL (≈ 24.4 µM) | 21.5 µg/mL (≈ 51.4 µM) |  |  |  |
|  |  |  | > 80 µg/mL | 80 µg/mL (≈ 200 µM) | CCCCCCCCC1(C)SC(=O)C=C1OCC(=O)Nc1ccc(C#N)cc1 (stereo not drawn) | 5.3 µg/mL (≈ 13.2 µM) | 3.8 µg/mL (≈ 9.49 µM) | 6.6 µg/mL (≈ 16.5 µM) |  |  |  |
